Reference: US11231421B2, “Methods of treating multifocal cancer” (NYMOX CORPORATION, priority 2019, dated 2022)
Where no end group is shown, it is not given here.

How the values were obtained:
injected areas = assay: Histology of injected areas after treatment; assay type: in vivo; conditions: up to several weeks after treatment
Source text: Use of FT is a preferred embodiment. FT is a new molecular entity which in vitro stimulates caspase pathways (activation of caspases 7, 8, and 10, caspase recruitment domains 6, 11, and 14, and DIABLO), tumor necrosis factor pathways (activation of TNF1, TNFSF6, TNFSF8, TNFSF9, CD70 ligands, and TNFRSF19L, TNFRSF25, TRAF2, TRAF3, TRAF4, TRAF6 receptors), and BCL pathways (activation of BIK, HRK, BCL2L10 and BCL3) in prostate glandular epithelial cells, based on tissue culture genetic array data. […] The apoptotic process leads to typical ultrastructural progressive changes of membranous disruption and swelling, progressively deepening nuclear invaginations with eventual membranous bleb formations and cell death and fragmentation into apoptotic bodies.

[1] = test system: low grade prostate cancer (Gleason grade 6); assay: Clinical study, Example 6: cancer treatment with new multifocal and an increase in Gleason grade primary pattern; assay type: in vivo, human; conditions: for % Imp.: cancer treatment with new multifocal and an increase in Gleason grade primary pattern, entire prostate: vs control active surveillance
Method: (§1) In a series of clinical studies a total of 146 men with low grade prostate cancer (Gleason grade 6) were treated in the following manner. Patients were randomized and treated with a transrectal intraprostatic single injection of a composition comprising 2.5 mg FT (n=49), or a composition comprising 15 mg FT (n=48), or were subject to control active surveillance (n=49). After the first follow-up biopsy at 45 days post-randomization, 18 patients in the control active surveillance group crossed over to a single administration of a composition in which 10 patients received 2.5 mg FT, and 8 patients received 15 mg FT. Patients were followed for 5 years including biopsies at baseline, 45 days, 18, 36, and 48 months, and urological evaluations with PSA every 6 months. Patients with Gleason grade increase or who elected surgical or radiotherapeutic intervention exited the study and were still included in the data analysis. Percentage of normal biopsies in the baseline focus quadrant and median tumor grade and volume were assessed; progression was measured by clinical and pathological outcomes including Gleason grade, and Gleason grade primary pattern, in the entire prostate sampled as well as for the treated prostate lobe. Interventions associated with Gleason grade increase as well as total incidence for any conventional surgical intervention (e.g., surgery, radiotherapy, and/or chemotherapy) was assessed.

[2] = test system: low grade prostate cancer (Gleason grade 6); assay: Clinical study, Example 8: cancer treatment with new multifocal and an increase in Gleason grade primary pattern in the hemi-prostate; assay type: in vivo, human; conditions: for % Imp.: cancer treatment with new multifocal and an increase in Gleason grade primary pattern in the hemi-prostate: vs control active surveillance
Method: as §1, with “assessed. This example evaluated the percentage of patients having conventional cancer treatment (surgery, radiotherapy, or chemotherapy), and having multifocal prostate cancer in the lobe (or hemi-prostate) in which the foci were initially treated with Gleason primary pattern (cancer treatment with new multifocal and an increase in Gleason grade primary pattern in the hemi-prostate).” for “assessed.”

[3] = test system: low grade prostate cancer (Gleason grade 6); assay: Clinical study, Example 3: hemi-prostate multifocal cancer with Gleason upgrade; assay type: in vivo, human; conditions: for % Imp.: hemi-prostate multifocal cancer with Gleason upgrade: vs control active surveillance
Method: as §1

[4] = test system: low grade prostate cancer (Gleason grade 6); assay: Clinical study, Example 1: new multifocal with Gleason upgrade in entire prostate; assay type: in vivo, human; conditions: for % Imp.: new multifocal with Gleason upgrade, entire prostate: vs control active surveillance
Method: as §1

[5] = FT 2.5 mg, <=18 mos from treatment
[6] = FT 2.5 mg, <=36 mos from treatment
[7] = FT 2.5 mg, <=48 mos from treatment
[8] = FT 15 mg, <=18 mos from treatment
[9] = FT 15 mg, <=36 mos from treatment
[10] = FT 15 mg, <=48 mos from treatment
[11] = Pooled FT (2.5 mg and 15 mg), <=18 mos from treatment
[12] = Pooled FT (2.5 mg and 15 mg), <=18 mos
[13] = Pooled FT (2.5 mg and 15 mg), <=36 mos from treatment
[14] = Pooled FT (2.5 mg and 15 mg), <=36 mos
[15] = Pooled FT (2.5 mg and 15 mg), <=48 mos from treatment
[16] = Pooled FT (2.5 mg and 15 mg), <=48 mos

fexapotide triflutate (IDQQVLSRIKLEIKRCL; also: trifluoroacetate salt) [FT]
histological changes in injected areas (injected areas): typical apoptotic changes with positive immunohistochemical staining of markers for apoptosis are found throughout the injected areas
percentage of patients: cancer treatment with new multifocal and an increase in Gleason grade primary pattern, entire prostate [1, 5]: 0 (p = 0.001) %
% Imp.: cancer treatment with new multifocal and an increase in Gleason grade primary pattern, entire prostate ([1]; FT 2.5 mg, <=18 mos): 100%
percentage of patients: cancer treatment with new multifocal and an increase in Gleason grade primary pattern, entire prostate [1, 6]: 0 (p = 0.006) %
% Imp.: cancer treatment with new multifocal and an increase in Gleason grade primary pattern, entire prostate ([1]; FT 2.5 mg, <=36 mos): 100%
percentage of patients: cancer treatment with new multifocal and an increase in Gleason grade primary pattern, entire prostate [1, 7]: 0 (p = 0.0040) %
% Imp.: cancer treatment with new multifocal and an increase in Gleason grade primary pattern, entire prostate ([1]; FT 2.5 mg, <=48 mos): 100%
percentage of patients: cancer treatment with new multifocal and an increase in Gleason grade primary pattern, entire prostate [1, 8]: 2.6 (p = 0.06) %
% Imp.: cancer treatment with new multifocal and an increase in Gleason grade primary pattern, entire prostate ([1]; FT 15 mg, <=18 mos): 83.5%
percentage of patients: cancer treatment with new multifocal and an increase in Gleason grade primary pattern, entire prostate [1, 9]: 3.6 (p = 0.04) %
% Imp.: cancer treatment with new multifocal and an increase in Gleason grade primary pattern, entire prostate ([1]; FT 15 mg, <=36 mos): 84.7%
percentage of patients: cancer treatment with new multifocal and an increase in Gleason grade primary pattern, entire prostate [1, 10]: 4.2 (p = 0.019) %
% Imp.: cancer treatment with new multifocal and an increase in Gleason grade primary pattern, entire prostate ([1]; FT 15 mg, <=48 mos): 86.6%
percentage of patients: cancer treatment with new multifocal and an increase in Gleason grade primary pattern, entire prostate [1, 11]: 1.3 (p = 0.04) %
% Imp.: cancer treatment with new multifocal and an increase in Gleason grade primary pattern, entire prostate [1, 12]: 91.8%
percentage of patients: cancer treatment with new multifocal and an increase in Gleason grade primary pattern, entire prostate [1, 13]: 1.7 (p = 0.002) %
% Imp.: cancer treatment with new multifocal and an increase in Gleason grade primary pattern, entire prostate [1, 14]: 92.8%
percentage of patients: cancer treatment with new multifocal and an increase in Gleason grade primary pattern, entire prostate [1, 15]: 2.1 (p = 0.001) %
% Imp.: cancer treatment with new multifocal and an increase in Gleason grade primary pattern, entire prostate [1, 16]: 93.3%
percentage of patients: cancer treatment with new multifocal and an increase in Gleason grade primary pattern in the hemi-prostate [2, 5]: 0 (p = 0.025) %
% Imp.: cancer treatment with new multifocal and an increase in Gleason grade primary pattern in the hemi-prostate ([2]; FT 2.5 mg, <=18 mos): 100%
percentage of patients: cancer treatment with new multifocal and an increase in Gleason grade primary pattern in the hemi-prostate [2, 6]: 0 (p = 0.017) %
% Imp.: cancer treatment with new multifocal and an increase in Gleason grade primary pattern in the hemi-prostate ([2]; FT 2.5 mg, <=36 mos): 100%
percentage of patients: cancer treatment with new multifocal and an increase in Gleason grade primary pattern in the hemi-prostate [2, 7]: 0 (p = 0.031) %
% Imp.: cancer treatment with new multifocal and an increase in Gleason grade primary pattern in the hemi-prostate ([2]; FT 2.5 mg, <=48 mos): 100%
percentage of patients: cancer treatment with new multifocal and an increase in Gleason grade primary pattern in the hemi-prostate [2, 8]: 2.6%
% Imp.: cancer treatment with new multifocal and an increase in Gleason grade primary pattern in the hemi-prostate ([2]; FT 15 mg, <=18 mos): 75.2%
percentage of patients: cancer treatment with new multifocal and an increase in Gleason grade primary pattern in the hemi-prostate [2, 9]: 3.6%
% Imp.: cancer treatment with new multifocal and an increase in Gleason grade primary pattern in the hemi-prostate ([2]; FT 15 mg, <=36 mos): 79.5%
percentage of patients: cancer treatment with new multifocal and an increase in Gleason grade primary pattern in the hemi-prostate [2, 10]: 4.2%
% Imp.: cancer treatment with new multifocal and an increase in Gleason grade primary pattern in the hemi-prostate ([2]; FT 15 mg, <=48 mos): 77.7%
percentage of patients: cancer treatment with new multifocal and an increase in Gleason grade primary pattern in the hemi-prostate [2, 11]: 1.3 (p = 0.034) %
% Imp.: cancer treatment with new multifocal and an increase in Gleason grade primary pattern in the hemi-prostate [2, 12]: 87.6%
percentage of patients: cancer treatment with new multifocal and an increase in Gleason grade primary pattern in the hemi-prostate [2, 13]: 1.7 (p = 0.01) %
% Imp.: cancer treatment with new multifocal and an increase in Gleason grade primary pattern in the hemi-prostate [2, 14]: 90.3%
percentage of patients: cancer treatment with new multifocal and an increase in Gleason grade primary pattern in the hemi-prostate [2, 15]: 2.1 (p = 0.019) %
% Imp.: cancer treatment with new multifocal and an increase in Gleason grade primary pattern in the hemi-prostate [2, 16]: 88.8%
percentage of patients: hemi-prostate multifocal cancer with Gleason upgrade [3, 5]: 8.6%
% Imp.: hemi-prostate multifocal cancer with Gleason upgrade ([3]; FT 2.5 mg, <=18 mos): 54.26%
percentage of patients: hemi-prostate multifocal cancer with Gleason upgrade [3, 6]: 16.7%
% Imp.: hemi-prostate multifocal cancer with Gleason upgrade ([3]; FT 2.5 mg, <=36 mos): 53.2%
percentage of patients: hemi-prostate multifocal cancer with Gleason upgrade [3, 7]: 42.9%
% Imp.: hemi-prostate multifocal cancer with Gleason upgrade ([3]; FT 2.5 mg, <=48 mos): 5.7%
percentage of patients: hemi-prostate multifocal cancer with Gleason upgrade [3, 8]: 5.7%
% Imp.: hemi-prostate multifocal cancer with Gleason upgrade ([3]; FT 15 mg, <=18 mos): 69.7%
percentage of patients: hemi-prostate multifocal cancer with Gleason upgrade [3, 9]: 9.1 (p = 0.049) %
% Imp.: hemi-prostate multifocal cancer with Gleason upgrade ([3]; FT 15 mg, <=36 mos): 74.5%
percentage of patients: hemi-prostate multifocal cancer with Gleason upgrade [3, 10]: 13.3%
% Imp.: hemi-prostate multifocal cancer with Gleason upgrade ([3]; FT 15 mg, <=48 mos): 70.8%
percentage of patients: hemi-prostate multifocal cancer with Gleason upgrade [3, 11]: 7.1%
% Imp.: hemi-prostate multifocal cancer with Gleason upgrade [3, 12]: 62.2%
percentage of patients: hemi-prostate multifocal cancer with Gleason upgrade [3, 13]: 13.0 (p = 0.0549) %
% Imp.: hemi-prostate multifocal cancer with Gleason upgrade [3, 14]: 63.6%
percentage of patients: hemi-prostate multifocal cancer with Gleason upgrade [3, 15]: 27.6%
% Imp.: hemi-prostate multifocal cancer with Gleason upgrade [3, 16]: 39.3%
percentage of patients: new multifocal with Gleason upgrade, entire prostate [4, 5]: 13.5%
% Imp.: new multifocal with Gleason upgrade, entire prostate ([4]; FT 2.5 mg, <=18 mos): 51.4%
percentage of patients: new multifocal with Gleason upgrade, entire prostate [4, 6]: 23.1%
% Imp.: new multifocal with Gleason upgrade, entire prostate ([4]; FT 2.5 mg, <=36 mos): 47.2%
percentage of patients: new multifocal with Gleason upgrade, entire prostate [4, 7]: 50%
% Imp.: new multifocal with Gleason upgrade, entire prostate ([4]; FT 2.5 mg, <=48 mos): 12.4%
percentage of patients: new multifocal with Gleason upgrade, entire prostate [4, 8]: 5.7 (p = 0.025) %
% Imp.: new multifocal with Gleason upgrade, entire prostate ([4]; FT 15 mg, <=18 mos): 79.5%
percentage of patients: new multifocal with Gleason upgrade, entire prostate [4, 9]: 9.1 (p = 0.13) %
% Imp.: new multifocal with Gleason upgrade, entire prostate ([4]; FT 15 mg, <=36 mos): 79.2%
percentage of patients: new multifocal with Gleason upgrade, entire prostate [4, 10]: 20 (p = 0.039) %
% Imp.: new multifocal with Gleason upgrade, entire prostate ([4]; FT 15 mg, <=48 mos): 65%
percentage of patients: new multifocal with Gleason upgrade, entire prostate [4, 11]: 9.7 (p = 0.044) %
% Imp.: new multifocal with Gleason upgrade, entire prostate [4, 12]: 65.1%
percentage of patients: new multifocal with Gleason upgrade, entire prostate [4, 13]: 16.7 (P = 0.027) %
% Imp.: new multifocal with Gleason upgrade, entire prostate [4, 14]: 61.9%
percentage of patients: new multifocal with Gleason upgrade, entire prostate [4, 15]: 35.5%
% Imp.: new multifocal with Gleason upgrade, entire prostate [4, 16]: 37.8%
